Measured values: ChEMBL document CHEMBL3885861, “Open TG-GATES”

Species: Rattus norvegicus
Experiment: Open TG-GATES - Regimen: Single
Assay type: toxicity, organism-based, Sprague-Dawley
Design: regimen Single, gender Male, age 6 weeks
Settings: in vivo, po, 50 mg/kg, route gavage, dose level High; for ALT / AST / BUN / CRE / Ca / Cl / DBIL / GLC / IP / K / LDH / Na / PL / RALB / TBIL / TC / TG / TP / gamma-GTP / A/G / ALP: tissue Plasma; for APTT / Bas / Eos / Fbg / Hb / Ht / Lym / MCH / MCHC / MCV / Mono / Neu / PT / Plat / RBC / Ret / WBC: tissue Blood; for KIDNEY_L / KIDNEY_R / KIDNEY_TOTAL: tissue Kidney; for LIVER: tissue Liver

For `COc1ccc2c(c1)c(CC(=O)O)c(C)n2C(=O)c1ccc(Cl)cc1` [INDOMETHACIN], the ALT (3 h) was 41.2 IU/L, the AST (3 h) was 75 IU/L and the BUN (3 h) was 11.4 mg/dL. For the same compound, the CRE (3 h) was 0.4 mg/dL, the Ca (3 h) was 10.4 mg/dL and the Cl (3 h) was 102 meq/L. For the same compound, the DBIL (3 h) was 0.072 mg/dL, the GLC (3 h) was 217.4 mg/dL and the IP (3 h) was 10.5 mg/dL. The K (3 h) was 3.9 meq/L, the LDH (3 h) was 221 IU/L and the Na (3 h) was 140.4 meq/L. It also gave a PL (3 h) of 125.4 mg/dL, an RALB (3 h) of 3.3 g/dL and a TBIL (3 h) of 0.1 mg/dL. The TC (3 h) was 69.6 mg/dL, the TG (3 h) was 43.4 mg/dL and the TP (3 h) was 5.4 g/dL. The gamma-GTP (3 h) was 1 IU/L, the TERMINAL_BW (6 h) was 223.2 g and the APTT (6 h) was 18.3 s. For the same compound, the Bas (6 h) was 0%, the Eos (6 h) was 0.4% and the Fbg (6 h) was 214.4 mg/dL. It also gave a Hb (6 h) of 13.7 g/dL, a Ht (6 h) of 37.2% and a Lym (6 h) of 64%. It also gave an MCH (6 h) of 22.4 pg, an MCHC (6 h) of 36.9% and an MCV (6 h) of 60.8 fL. It also gave a Mono (6 h) of 4.6%, a Neu (6 h) of 28.6% and a PT (6 h) of 12.3 s. It also gave a Plat (6 h) of 113.8 x10_4/uL, an RBC (6 h) of 612.2 x10_4/ul and a Ret (6 h) of 8%. For the same compound, the WBC (6 h) was 123.9 x10_2/uL, the KIDNEY_L (6 h) was 0.9 g and the KIDNEY_R (6 h) was 0.9 g. The KIDNEY_TOTAL (6 h) was 1.9 g, the LIVER (6 h) was 9.5 g and the A/G (6 h) was 1.7. It also gave an ALP (6 h) of 705.2 IU/L, an ALT (6 h) of 35.4 IU/L and an AST (6 h) of 73 IU/L. The BUN (6 h) was 12.8 mg/dL, the CRE (6 h) was 0.4 mg/dL and the Ca (6 h) was 10.6 mg/dL. It also gave a Cl (6 h) of 102.6 meq/L, a DBIL (6 h) of 0.08 mg/dL and a GLC (6 h) of 194.2 mg/dL. For the same compound, the IP (6 h) was 9.4 mg/dL, the K (6 h) was 4.1 meq/L and the LDH (6 h) was 211.2 IU/L. It also gave a Na (6 h) of 140.4 meq/L, a PL (6 h) of 120.6 mg/dL and an RALB (6 h) of 3.3 g/dL. It also gave a TBIL (6 h) of 0.1 mg/dL, a TC (6 h) of 64.8 mg/dL and a TG (6 h) of 60.2 mg/dL. It also gave a TP (6 h) of 5.3 g/dL, a gamma-GTP (6 h) of 1 IU/L and a TERMINAL_BW (9 h) of 222.5 g. The APTT (9 h) was 19 s, the Bas (9 h) was 0% and the Eos (9 h) was 0.2%. The Fbg (9 h) was 215.2 mg/dL, the Hb (9 h) was 13.7 g/dL and the Ht (9 h) was 36.9%. The Lym (9 h) was 68.4%, the MCH (9 h) was 22.5 pg and the MCHC (9 h) was 37.2%. For the same compound, the MCV (9 h) was 60.4 fL, the Mono (9 h) was 3.8% and the Neu (9 h) was 24.8%. It also gave a PT (9 h) of 12.2 s, a Plat (9 h) of 113.6 x10_4/uL and an RBC (9 h) of 610.6 x10_4/ul. The Ret (9 h) was 8%, the WBC (9 h) was 107.9 x10_2/uL and the KIDNEY_L (9 h) was 1 g. The KIDNEY_R (9 h) was 1 g, the KIDNEY_TOTAL (9 h) was 1.9 g and the LIVER (9 h) was 9 g. It also gave an A/G (9 h) of 1.7, an ALP (9 h) of 738.8 IU/L and an ALT (9 h) of 30.4 IU/L. The AST (9 h) was 68.4 IU/L, the BUN (9 h) was 12.8 mg/dL and the CRE (9 h) was 0.4 mg/dL. It also gave a Ca (9 h) of 10.3 mg/dL, a Cl (9 h) of 103.8 meq/L and a DBIL (9 h) of 0.072 mg/dL. It also gave a GLC (9 h) of 200.8 mg/dL, an IP (9 h) of 9.9 mg/dL and a K (9 h) of 4.1 meq/L. It also gave an LDH (9 h) of 199 IU/L, a Na (9 h) of 140.6 meq/L and a PL (9 h) of 126.6 mg/dL. For the same compound, the RALB (9 h) was 3.3 g/dL, the TBIL (9 h) was 0.1 mg/dL and the TC (9 h) was 69.2 mg/dL. For the same compound, the TG (9 h) was 40.8 mg/dL, the TP (9 h) was 5.2 g/dL and the gamma-GTP (9 h) was 1.2 IU/L. The TERMINAL_BW (24 h) was 230 g, the APTT (24 h) was 21.7 s and the Bas (24 h) was 0%. For the same compound, the Eos (24 h) was 0%, the Fbg (24 h) was 260.8 mg/dL and the Hb (24 h) was 9.5 g/dL. It also gave a Ht (24 h) of 27%, a Lym (24 h) of 61.4% and an MCH (24 h) of 21.3 pg. The MCHC (24 h) was 35.1%, the MCV (24 h) was 60.6 fL and the Mono (24 h) was 2.8%. The Neu (24 h) was 33.4%, the PT (24 h) was 12.7 s and the Plat (24 h) was 67.9 x10_4/uL. It also gave an RBC (24 h) of 448.8 x10_4/ul, a Ret (24 h) of 8.4% and a WBC (24 h) of 122.6 x10_2/uL. The KIDNEY_L (24 h) was 1 g, the KIDNEY_R (24 h) was 1 g and the KIDNEY_TOTAL (24 h) was 2 g. The LIVER (24 h) was 10.4 g, the A/G (24 h) was 1.2 and the ALP (24 h) was 484.2 IU/L. For the same compound, the ALT (24 h) was 25.2 IU/L, the AST (24 h) was 48 IU/L and the BUN (24 h) was 21.6 mg/dL. The CRE (24 h) was 0.4 mg/dL, the Ca (24 h) was 9.4 mg/dL and the Cl (24 h) was 106.2 meq/L. It also gave a DBIL (24 h) of 0.056 mg/dL, a GLC (24 h) of 167.8 mg/dL and an IP (24 h) of 8.6 mg/dL. The K (24 h) was 4.2 meq/L, the LDH (24 h) was 145.2 IU/L and the Na (24 h) was 141.2 meq/L. It also gave a PL (24 h) of 114 mg/dL, an RALB (24 h) of 1.9 g/dL and a TBIL (24 h) of 0.096 mg/dL. For the same compound, the TC (24 h) was 60.4 mg/dL, the TG (24 h) was 122.8 mg/dL and the TP (24 h) was 3.5 g/dL. The gamma-GTP (24 h) was 1 IU/L.
